Test results: patent US9504729B2, “Antiangiogenic small molecules and methods of use” (The United States of America, as represented by the …, priority 2009, dated 2016)
Read-outs that look alike come from different tables or passages of the source.

How the values were obtained:
endothelial cells = test: Primary screening: cell-based growth HTS and tube formation HTS (bioactivity class)
Experimental: All assays were performed in clear bottom black 96-well plates. The plates were always arranged to include a column for negative controls (column 1), a column for positive controls (column 12), and 10 columns for evaluation of 80 compounds. In order to increase stringency and avoid false positives in the HTS assays, all compounds were tested at a low final concentration of 1 μM.
In summary, 1,000 cells/well were seeded in the 96-well plates described above. Cells in columns 2-12 were seeded in 10% FBS and cells in column 1 (negative control) were seeded in 0% FBS. Small molecules (80 per plate) were added in columns 2-11 at a final concentration of 1 μM (both positive and negative controls were exposed to the same percentage of DMSO in wells containing test compounds). The fluorescence emitted by every well was measured spectrophotometrically (Infinite M200, TECAN®, Mannedorf, Switzerland) every 24 hours for 5-7 days.
In summary, 20,000 cells/well were seeded on top of 50 μl of pre-gelled GELTREX® gel matrix (Invitrogen, Carlsbad, Calif.). All cells were seeded in 10% FBS. […] Small molecules (80 per plate) were added to columns 2-11 at a final concentration of 1 μM (both positive and negative controls were exposed to the same percentage of DMSO in wells containing test compounds). Plates were incubated for 5-7 hours and automatically imaged with the help of an epifluorescence microscope (Axiovert® 200M, Zeiss) equipped with a motorized stage and AxioVision® (Zeiss) software.
For hit detection, a stringent threshold (sigma 3.5) was applied to avoid false positives.

PAE cells [1] = test system: PAE cells
PAE = test: Apoptosis in PAE; format: cell-based, porcine
PAE cells [2] = test: Growth dose response (IC50) in PAE; format: cell-based, porcine; conditions: read-out: Growth IC50 (M) in PAE
Text: FIG. 6: Dose response curves were constructed for all the SMs of interest using PAE cells. Data were fitted to non-linear sigmoid curves using GraphPad Prism (GraphPad Software, Inc., La Jolla, Calif.).
Dose response curves were constructed for all the SM of interest using PAE cells. Data were fitted to non-linear sigmoid curves using GraphPad Prism (GraphPad software, Inc.).

PAE cells [3] = test: Fluorescence-release cytotoxicity assay; conditions: endothelial cells
in vitro = conditions: pig
SK-ML-1 tumors = test: SK-ML-1 tumor xenograft; conditions: 100 μl of 10 μM IP, three times a week for four weeks

Molecule	Bioactivity (endothelial cells)	Cytotoxicity (%) (PAE cells [1])	Apoptosis PAE (RFU) (PAE)	cytotoxicity (in words) (PAE cells [3])	cytotoxicity (in vitro) [%]	IC50 (PAE cells [2]; Sus scrofa, PAE cells) [M]	also measured
2,5-dibromo-3,6-dimethylbenzene-1,4- diol; 2,5-dibromo-3,6- dimethylcyclohexa-2,5-diene-1,4-dione [Compound 72]	3	13.88	1.368	–	–	–	IC50 (PAE cells [2]): 1.39e-10 M
CC1(C)N=C(N)N=C(N)N1CCCCc1ccccc1.Cl [Compound 11, 6,6-dimethyl-1-(4-phenylbutyl)-1,3,5-triazine-2,4-diamine hydrochloride]	–	–	–	cytotoxic	18.7	2.37e-11	–
COc1ccc(CC2C(=O)NC(C)C(=O)N(C)C3Cc4ccc(cc4)Oc4cc(ccc4O)CC(C(=O)NC(C)C(=O)NC(C)C(=O)N2C)N(C)C3=O)cc1 (stereo not drawn) [Compound 58, Deoxybouvardin or 24-hydroxy-10-(4-methoxybenzyl)-4,7,9,13,15,29-hexamethyl-22-oxa-3,6,9,12,15,29-hexaazatetracyclo-[14.12.2.2~18,21~.1~23,27~]tritriaconta-18,20,23(31),24,26,32-hexaene-2,5,8,11,14,30-hexone]	–	–	–	–	11.2	–	type of inhibition (endothelial cell growth and/or tube formation) (endothelial cells): tube formation; inhibition of tumor growth, SK-ML-1 xenograft (SK-ML-1 tumors): potencies similar to AVASTIN®
COc1ccc(CC2C(=O)NC(C)C(=O)N(C)C3C(=O)N(C)C(Cc4ccc(O)c(c4)Oc4ccc(cc4)C3O)C(=O)NC(C)C(=O)NC(C)C(=O)N2C)cc1 (stereo not drawn) [Compound 59, Bouvardin or 17,24-dihydroxy-10-(4-methoxybenzyl)-4,7,9,13,15,29-hexamethyl-22-oxa-3,6,9,12,15,29-hexaazatetracyclo-[14.12.2.2-18,21~.1~23,27~]tritriaconta-18,20,23(31),24,26,32-hexaene-2,5,8,11,14,30-hexone]	2	9.794	6.215	–	–	–	–
COc1ccc(-c2csc3c2-n2cccc2C3=O)cc1 [Compound 63, 3-(4-methoxyphenyl)thieno[2,3-b]pyrrolizin-8-one]	–	–	–	without cytotoxicity	7.48	1.55e-11	type of inhibition (endothelial cell growth and/or tube formation) (endothelial cells; 1 μM): inhibited both endothelial cell growth and tube formation
O=[N+]([O-])c1ccc(S(=O)(=O)Cc2ccccc2)c([N+](=O)[O-])c1 [Compound 64, 1-benzylsulfonyl-2,4-dinitrobenzene]	–	–	–	–	7.09	2.79e-10	type of inhibition (endothelial cell growth and/or tube formation) (endothelial cells; 1 μM): inhibited both endothelial cell growth and tube formation; type of inhibition (endothelial cell growth and/or tube formation) (endothelial cells; 1 μM, listed as NSC 122657): tube formation+growth; cytotoxicity (in words) (PAE cells [1]): without cytotoxicity
O=C(c1no[n+]([O-])c1C(=O)c1csc2ccccc12)c1csc2ccccc12 [Compound 68, [4-(1-benzothiophene-3-carbonyl)-2-oxido-1,2,5-oxadiazol-2-ium-3-yl]-(1-benzothiophen-3-yl)methanone]	–	–	–	cytotoxic	19.1	1.4e-10	–
bromocopper; (dipyridin-2- ylmethylideneamino)- [methylsulfanyl(sulfoniumylidene) methyl]azanide [Compound 70]	–	38.53	–	cytotoxic	–	–	Bioactivity (endothelial cells; HTS at 1 μM final concentration): 3; Apoptosis PAE (RFU) (PAE; PAE cells): 1.021 RFU; IC50 (PAE cells [2]; PAE cells): 6.11e-12 M
zinc; 8-hydroxy-3,4,4a,5,6,7,8,8a- octahydro-2H-quinolin-1-ide-5-sulfonic acid; 5-sulfo-1,2-dihydroquinolin-8-olate [Compound 61]	2	7.901	1.841	–	–	–	–
